Tests used:
Assay in all cases: relative viability (nuclei count vs DMSO), 5 days (fraction); higher = more cells survive
Halofuginone + Lapatinib = compound: O=C(C[C@H]1NCCC[C@@H]1O)Cn1cnc2cc(Br)c(Cl)cc2c1=O (racemic) [Halofuginone] + CS(=O)(=O)CCNCc1ccc(-c2ccc3ncnc(Nc4ccc(OCc5cccc(F)c5)c(Cl)c4)c3c2)o1 [Lapatinib] (partner 2 µM)
Summary of the method: (§1)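 Values are medians from duplicate plates. Each reflects relative viability, defined as the nuclei count of treated wells over that of vehicle wells. Lung cancer cell lines in 1536-well plates were pin-tool dosed one day after seeding with one drug alone or with a fixed anchor-drug dose plus five library-drug doses (not always all listed) in √10 steps, then fixed, stained and imaged at 4× after 5 days.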

Cediranib + Tozasertib = compound: COc1cc2c(Oc3ccc4[nH]c(C)cc4c3F)ncnc2cc1OCCCN1CCCC1 [Cediranib] + Cc1cc(Nc2cc(N3CCN(C)CC3)nc(Sc3ccc(NC(=O)C4CC4)cc3)n2)n[nH]1 [Tozasertib] (partner 0.1 µM)
Summary of the method: as §1

Decitabine + Luminespib = compound: Nc1ncn([C@H]2C[C@H](O)[C@@H](CO)O2)c(=O)n1 [Decitabine] + CCNC(=O)c1noc(-c2cc(C(C)C)c(O)cc2O)c1-c1ccc(CN2CCOCC2)cc1 [Luminespib] (partner 0.01 µM)
Summary of the method: as §1

[1] = compound: O=C(C[C@H]1NCCC[C@@H]1O)Cn1cnc2cc(Br)c(Cl)cc2c1=O (racemic) [Halofuginone] + N=C(N)NC(=N)NCCc1ccccc1 [Phenformin] (partner 250 µM)
Summary of the method: as §1

Cell Line | relative viability (Halofuginone + Lapatinib; first compound 0.001 µM) | relative viability (Halofuginone + Lapatinib; first compound 0.003162 µM) | relative viability (Halofuginone + Lapatinib; first compound 0.01 µM) | relative viability (Halofuginone + Lapatinib; first compound 0.03162 µM) | relative viability (Halofuginone + Lapatinib; first compound 0.1 µM) | relative viability (Cediranib + Tozasertib; first compound 0.04 µM) | relative viability (Cediranib + Tozasertib; first compound 0.1265 µM) | relative viability (Cediranib + Tozasertib; first compound 0.4 µM) | relative viability (Cediranib + Tozasertib; first compound 1.265 µM) | relative viability (Cediranib + Tozasertib; first compound 4 µM) | relative viability (Decitabine + Luminespib; first compound 0.04 µM) | relative viability (Decitabine + Luminespib; first compound 0.1265 µM) | relative viability (Decitabine + Luminespib; first compound 0.4 µM) | relative viability (Decitabine + Luminespib; first compound 1.265 µM) | relative viability (Decitabine + Luminespib; first compound 4 µM) | relative viability ([1]; first compound 0.001 µM) | relative viability ([1]; first compound 0.003162 µM) | relative viability ([1]; first compound 0.01 µM) | relative viability ([1]; first compound 0.03162 µM) | relative viability ([1]; first compound 0.1 µM)
NCI-H1355 | 1.03 | 1.03 | 0.972 | 0.984 | 0.891 | 0.548 | 0.684 | 0.482 | 0.564 | 0.492 | 0.538 | 0.483 | 0.454 | 0.298 | 0.258 | 0.456 | 0.503 | 0.429 | 0.441 | 0.407
NCI-H1395 | 1.02 | 0.873 | 1.04 | 0.891 | 0.71 | 0.739 | 0.773 | 0.666 | 0.74 | 0.791 | 0.626 | 0.661 | 0.568 | 0.432 | 0.438 | 0.457 | 0.464 | 0.442 | 0.444 | 0.334
NCI-H1437 | 0.835 | 0.91 | 0.721 | 0.755 | 0.465 | 0.434 | 0.426 | 0.365 | 0.412 | 0.421 | 0.995 | 0.825 | 0.633 | 0.445 | 0.372 | 0.329 | 0.308 | 0.3 | 0.297 | 0.258
NCI-H1650 | 0.594 | 0.787 | 0.677 | 0.704 | 0.194 | 0.585 | 0.374 | 0.36 | 0.476 | 0.329 | 0.188 | 0.182 | 0.194 | 0.201 | 0.179 | 0.495 | 0.467 | 0.413 | 0.442 | 0.188
NCI-H1651 | 0.939 | 0.908 | 0.763 | 0.768 | 0.34 | 0.619 | 0.696 | 0.596 | 0.676 | 0.815 | 0.942 | 0.844 | 0.828 | 0.69 | 0.658 | 0.377 | 0.34 | 0.333 | 0.35 | 0.276
NCI-H1666 | 0.685 | 0.826 | 0.626 | 0.67 | 0.458 | 0.651 | 0.678 | 0.598 | 0.595 | 0.624 | 0.927 | 0.964 | 0.815 | 0.674 | 0.726 | 0.587 | 0.612 | 0.562 | 0.56 | 0.475
NCI-H1734 | 1.12 | 1.02 | 1.05 | 0.986 | 0.812 | 0.262 | 0.246 | 0.278 | 0.277 | 0.245 | 0.182 | 0.172 | 0.165 | 0.192 | 0.157 | 0.369 | 0.436 | 0.427 | 0.408 | 0.369
NCI-H1755 | 0.993 | 0.992 | 0.992 | 1.04 | 0.997 | 0.54 | 0.481 | 0.532 | 0.595 | 0.547 | 0.451 | 0.528 | 0.441 | 0.394 | 0.278 | 0.636 | 0.629 | 0.617 | 0.665 | 0.615
NCI-H1793 | 0.775 | 0.832 | 0.707 | 0.811 | 0.589 | 0.414 | 0.419 | 0.347 | – | 0.329 | 0.154 | 0.212 | 0.19 | 0.176 | 0.213 | 0.438 | 0.388 | 0.429 | 0.328 | 0.332
NCI-H1915 | 0.977 | 0.983 | 0.942 | 0.96 | 0.984 | 0.467 | 0.384 | 0.428 | 0.46 | 0.42 | 0.331 | 0.465 | 0.267 | 0.186 | 0.219 | 0.361 | 0.386 | 0.366 | 0.339 | 0.355
NCI-H1944 | 0.709 | 0.835 | 0.852 | 0.825 | 0.675 | 0.255 | 0.264 | 0.244 | 0.24 | 0.266 | 0.643 | 0.645 | 0.633 | 0.389 | 0.369 | 0.179 | 0.225 | 0.208 | 0.218 | 0.172
NCI-H1975 | 0.881 | 0.873 | 0.766 | 0.692 | 0.385 | 0.822 | 0.809 | 0.699 | 0.822 | 0.768 | 0.198 | 0.161 | 0.162 | 0.174 | 0.142 | 0.403 | 0.397 | 0.422 | 0.356 | 0.365
NCI-H1993 | 0.792 | 0.86 | 0.862 | 0.789 | 0.823 | 0.607 | 0.586 | 0.596 | 0.565 | 0.734 | 0.725 | 0.826 | 0.787 | 0.696 | 0.674 | 0.436 | 0.554 | 0.448 | 0.535 | 0.577
NCI-H2009 | 1.06 | 1.01 | 0.887 | 0.83 | 0.409 | 0.775 | 0.763 | 0.703 | 0.732 | 0.795 | 0.929 | 0.68 | 0.54 | 0.328 | 0.348 | 0.485 | 0.52 | 0.473 | 0.449 | 0.271
NCI-H2023 | 0.8 | 0.809 | 0.874 | 0.494 | 0.0821 | 0.389 | 0.353 | 0.267 | 0.433 | 0.303 | 0.317 | 0.386 | 0.153 | 0.138 | 0.14 | 0.441 | 0.418 | 0.383 | 0.395 | 0.2
NCI-H2085 | 0.769 | 0.762 | 0.695 | 0.778 | 0.649 | 0.756 | 0.877 | 0.757 | 0.836 | 0.784 | 0.436 | 0.404 | 0.323 | 0.372 | 0.344 | 0.685 | 0.703 | 0.686 | 0.705 | 0.574

Source: the supplement of paper PMC10307832
